Experimental data from US20130344490A1, “NEOPLASTIC CELLS GROWN ON DECELLULARIZED BIOMATRIX” (priority 2012, published 2013).

Assays:
[1] = test system: human 1299 cells (NCI-H1299) cultured within rat decellularized biomatrices; experiment: Cisplatin treatment of tissue constructs: tumor size and live cells; format: cell-based; conditions: 50 μM Cisplatin from day 4 of culture
Experimental: A simplified, small, closed-system bioreactor was set up in an incubator for lung cell culture on the lung biomatrix (FIG. 1B). A custom-designed 500-mL glass bottle was used with three holes in the cap fitted with a female Luer thread-style panel (Cole-Parmer), one for the pulmonary artery cannula, one for the trachea cannula, and one for circulation of medium from the bottle. Medium was constantly circulated with the help of a Masterflex pump (Cole-Parmer) through a 10-foot length of silicone oxygenator tubing wrapped around a mesh of wire solenoid (Cole-Parmer). The medium was perfused through the pulmonary artery cannula into lungs at a flow rate of 6 mL/min. For controlled flow through the pulmonary artery, it was connected to a three-way stopcock (Smith Medical, Dublin, Ohio). The bottle was filled with 150 mL of complete medium or serum-free medium, which was circulated through the oxygenator tubing to prevent air bubbles. […] Treatment (Tx) with 50 μM Cisplatin was commenced at day 4 of culture, and treated tissue constructs and untreated controls were assessed and compared at days 4, 8, 11, and 14 of culture (FIGS. 11 and 12). […]

[2] = test system: human 1299 cells (NCI-H1299) cultured within rat decellularized biomatrices; experiment: Ki-67 and TUNEL staining of treated and untreated lung tissue constructs; format: cell-based; conditions: 50 μM Cisplatin from day 4 of culture; compared with untreated constructs (FIG. 14)
Text: Lobes of same lungs were dissected at day 0 (day of seeding cancer cells onto biomatrix), day 3, day 7, and day 11 or day 14 (or both) in sterile conditions under the culture hood to see the progression of tumor growth. After lobectomy, lung tissues were placed in 70% ethanol and analyzed in the Pathology Core Laboratory at The Methodist Hospital Research Institute. Briefly, the tissues were fixed in 10% formalin overnight, processed, and embedded in paraffin. Embedded tissues were cut into […] slices and mounted on slides, and the paraffin was removed; antigen retrieval was performed with antigen unmasking solution (H-3300; Vector Laboratories, Burlingame, Calif.) in a steamer for 20 minutes. Slides were cooled for 20 minutes at room temperature, washed in PBS, and stained with hematoxylin and eosin, Movat Pentachrome (American MasterTech Scientific, Lodi, Calif.), elastin (VVG kit, Ventana Nexus, Tucson, Ariz.), and other markers following the standard protocol. Stained slides were examined by expert board-certified pathologists, and images were captured using a microscope (Olympus, Center Valley, Pa.). […] Treatment (Tx) with 50 μM Cisplatin was commenced at day 4 of culture, and treated tissue constructs and untreated controls were assessed and compared at days 4, 8, 11, and 14 of culture (FIGS. 11 and 12). […]

[3] = test system: human 1299 cells (NCI-H1299) cultured within rat decellularized biomatrices; experiment: Circulating cells in perfusion fluid of treated and untreated lung tissue constructs; format: cell-based; conditions: 50 μM Cisplatin from day 4 of culture, over the observed time period, untreated showed steady increase (FIG. 15)
Experimental: In some embodiments, the analyzing comprises determining the number of cells in the perfusion fluid used to perfuse a tissue construct as described herein. The number of cells in the perfusion fluid, also referred to as the number of circulating cells herein, can be used as an indicator for the metastatic properties of neoplastic cells cultured within the tissue construct. For example, in tissue constructs in which neoplastic cells are cultured within the interstitial space, and perfusion fluid is run through the vascular space, cells found in the perfusion fluid may stem from neoplastic cells that have migrated across the basement membrane separating the interstitial and the vascular space. Since the capability to migrate across the basement membrane and, thus, to enter into the blood stream, is a hallmark feature of metastasizing cancer cells, the ability to migrate across the basement membrane in a tissue construct is a biomarker useful for assessing metastatic capabilities of cells grown in tissue constructs provided herein. […] Treatment (Tx) with 50 μM Cisplatin was commenced at day 4 of culture, and treated tissue constructs and untreated controls were assessed and compared at days 4, 8, 11, and 14 of culture (FIGS. 11 and 12). […]

[4] = test system: MMPs 1, 2, 7, 9, and 10; experiment: MMP secretion into perfusion fluid of treated and untreated lung tissue constructs; format: cell-based, human; conditions: 50 μM Cisplatin from day 4 of culture
Text: In some embodiments, the analyzing comprises an assessment of one or more molecules secreted into a perfusion fluid by the cells cultured within the tissue construct. For example, in a lung tissue construct, the analyzing may comprise detecting a protein, peptide, or nucleic acid in a perfusion fluid run through the pulmonary artery. In some embodiments, the secreted factor assessed is a secreted factor associated with cancer, or with a property of neoplastic cells, for example, with the metastatic capabilities of neoplastic cells. Secreted factors associated with cancer are known to those of skill in the art and include factors that are typically secreted by a tumor, such as growth factors and pro-angiogenic factors, as are factors associated with the metastatic capabilities of neoplastic cells. Metastasis-associated factors include, for example, matrix metalloproteases (MMPs, e.g., MMP-1, MMP-2, MMP-3, MMP-9, and MMP-10, as well as other MMPs). Tissue constructs were generated by culturing human 1299 cells, also known as NCI-H1299 or CRL-5803, a human non-small cell lung carcinoma cell line, within rat decellularized biomatrices. Treatment (Tx) with 50 μM Cisplatin was commenced at day 4 of culture, and treated tissue constructs and untreated controls were assessed and compared at days 4, 8, 11, and 14 of culture (FIGS. 11 and 12). […]

N.N.[Cl][Pt][Cl] [Cisplatin]
percentage of live cells ([1]; compared with non-treated constructs (FIG. 13)): dramatically decreased | Tumor size ([1]; compared with untreated constructs, days 4, 8, 11, 14 (FIG. 13)): dramatically decreased | Ki-67 expression [2]: decreased in treated constructs | TUNEL staining [2]: widespread apoptotic processes | number of circulating cells [3]: gradual decrease over the observed time period after initial rapid release of the circulating cells | Levels of the assessed MMPs at the end of the observation period ([4]; end of the observation period (FIG. 16)): no detectable levels | Levels of MMPs 1, 2, 7, 9, and 10 in perfusion fluid after start of treatment ([4]; untreated gradually increased over time (FIG. 16)): levels of all MMPs were diminished
